Source: patent publication US4797415A, “Benzofuran derivatives and use thereof for treating hyperuricemia” (Kotobuki Seiyaku Company Limited, priority 1982, dated 1989)
Where two headings read alike, the source gives them in different places.

How the values were obtained:
[1] = tested on: phenol red retention in circulation; test: Uricosuric activity by phenol red retention test in mice; type: in vivo, male mice; details: for response vs control in vivo at 200 mg/kg: Mus musculus, 1 h
Procedure: (§1) Blood samples were collected from the retro-orbital plexus into heparinized capillary tubes 60 minutes after the phenol red injection. The retention of phenol red in circulation was determined according to the method described in J. Med. Pharmaceu.
Benzobromarone was administered subcutaneously to mice in an amount of 200 mg./kg. as a control or standard.

in vivo = details: mouse, po, p.o. in mice
Source text: In general, the compounds related to this invention have a potent uriosuric activiity and some of them are considered promising for clinical use. The toxicity of these compounds is much lower than that of the typical uricosuric agent: benzbromarone.

phenol red retention = test: Uricosuric activity by phenol red method in rats; type: in vivo; details: p.o. 100 mg/kg
Procedure: as §1
The same test of uricosuric activity was applied to rats.

[2] = po, mice, p.o. 200 mg/kg, 30 min before 75 mg/kg phenol red, blood 60 min after phenol red, read-out: phenol red retention, percentage by comparison with the control group, P.O. (200 mg/kg)
[3] = sc, mice, s.c. 200 mg/kg, 30 min before 75 mg/kg phenol red, blood 60 min after phenol red, read-out: phenol red retention, percentage by comparison with the control group, S.C. (200 mg/kg)

| SMILES | response vs control in vivo at 200 mg/kg [1, 2] [%] | response vs control in vivo at 200 mg/kg [1, 3] [%] | other results |
| --- | --- | --- | --- |
| CCc1oc2ccccc2c1C(=O)c1cc(Br)c(O)c(Br)c1 [Benzbromarone, benzbromarone, reference compound] | – | – | response vs control in vivo at 200 mg/kg ([1]; sc, read-out: phenol red retention, percentage by comparison with the control group, S.C. (200 mg/kg)): 184%; LD50 (in vivo): 361 mg/kg; Phenol Red Retention % in Rats 100 mg/kg (p.o.) (phenol red retention): 163.9 ± 25.0% |
| CCc1oc2ccccc2c1C(=O)c1ccc(OCC(=O)O)cc1 [Compound 3, 4-(2-ethyl-3-benzofuroyl)phenoxyacetic acid] | 175 ± 15.5 | 169 ± 18.1 | LD50 (in vivo): 2110 mg/kg; Phenol Red Retention % in Rats 100 mg/kg (p.o.) (phenol red retention): 194.6 ± 29.7% |
| C=C(CC(=O)c1c(CC)oc2ccccc12)C(=O)O [Compound 21, 2-methylene-4-oxo-4-(2-ethyl-3-benzofuranyl)butyric acid] | 165 ± 21.7 | 100 ± 13.6 | – |
| CCc1oc2ccccc2c1C(=O)c1ccc(OCC(=O)O)c(Cl)c1 [Compound 22, 2-chloro-4-(2-ethyl-3-benzofuroyl)phenoxyacetic acid] | 190 ± 26.3 | 211 ± 33.3 | Phenol Red Retention % in Rats 100 mg/kg (p.o.) (phenol red retention): 217.2 ± 17.2% |
| CCc1oc2ccccc2c1C(=O)c1ccc(O)c(C)c1 [Compound 23, 2-ethyl-3-benzofuranyl 3-methyl-4-hydroxyphenyl ketone] | – | 81 ± 14.3 | – |
| CCOC(=O)COc1ccc(C(=O)c2c(CC)oc3ccccc23)cc1C [Compound 24, Ethyl 2-methyl-4-(2-ethyl-3-benzofuroyl)phenoxyacetate] | – | 172 ± 27.7 | – |
| CCc1oc2ccccc2c1C(=O)c1ccc(OCC(=O)O)c(C)c1 [Compound 25, 2-methyl-4-(2-ethyl-3-benzofuroyl)phenoxyacetic acid] | 200 ± 25 | 189 ± 27.8 | Phenol Red Retention % in Rats 100 mg/kg (p.o.) (phenol red retention): 208.1 ± 27.0% |
| CCc1oc2ccccc2c1C(=O)c1ccc(O)c([N+](=O)[O-])c1 [Compound 26, 2-ethyl-3-benzofuranyl 3-nitro-4-hydroxyphenyl ketone] | – | – | phenol red retention, percentage by comparison with the control group, S.C. (given at a dose of 100 mg/kg) ([1]; mice, s.c. 100 mg/kg (footnote *), 30 min before 75 mg/kg phenol red, blood 60 min after phenol red): 222.2 ± 27.7% |
| CCOC(=O)COc1ccc(C(=O)c2c(CC)oc3ccccc23)cc1[N+](=O)[O-] [Compound 27, Ethyl 2-nitro-4-(2-ethyl-3-benzofuroyl)phenoxyacetate] | – | 111 ± 11.1 | – |
| CCc1sc2ccccc2c1C(=O)c1ccc(O)cc1 [Compound 29, 2-ethyl-3-(4-hydroxybenzoyl)thianaphthene] | – | 100 ± 21.4 | – |
| CCOC(=O)COc1ccc(C(=O)c2c(CC)sc3ccccc23)cc1 [Compound 30, Ethyl 4-(2-ethyl-3-benzothenoyl)phenoxyacetate] | – | 85.7 ± 14.3 | – |
| CCc1sc2ccccc2c1C(=O)c1ccc(OCC(=O)O)cc1 [Compound 31, 4-(2-ethyl-3-benzothenoyl)phenoxyacetic acid] | 162 ± 31.3 | 144 ± 22.2 | – |
| CCc1oc2ccccc2c1C(=O)c1ccc(O)c(C)c1C [Compound 32, 2-ethyl-3-(2,3-dimethyl-4-hydroxybenzoyl)benzofuran] | 112 ± 18.8 | – | – |
| CCc1oc2ccccc2c1C(=O)c1ccc(OCC(=O)OC)c(C)c1C [Compound 33, Methyl 2,3-dimethyl-4-(2-ethyl-3-benzofuroyl)phenoxyacetate] | 133 ± 15.6 | – | – |
| CCOC(=O)COc1ccc(C(=O)c2c(CC)oc3ccccc23)c(C)c1C [Compound 34, Ethyl 2,3-dimethyl-4-(2-ethyl-3-benzofuroyl)phenoxyacetate] | 124 ± 28.6 | – | – |
| CCc1oc2ccccc2c1C(=O)c1ccc(OCC(=O)O)c(C)c1C [Compound 35, 2,3-dimethyl-4-(2-ethyl-3-benzofuroyl)phenoxyacetic acid] | 319 ± 14.3 | – | Phenol Red Retention % in Rats 100 mg/kg (p.o.) (phenol red retention): 269.0 ± 31.0% |
| CCc1oc2ccccc2c1C(=O)c1cc(C)c(O)cc1C [Compound 36, 2-ethyl-3-(2,5-dimethyl-4-hydroxybenzoyl)benzofuran] | 131 ± 15.6 | – | – |
| CCc1oc2ccccc2c1C(=O)c1cc(C)c(OCC(=O)OC)cc1C [Compound 37, Methyl 2,5-dimethyl-4-(2-ethyl-3-benzofuroyl)phenoxyacetate] | 254 ± 15.6 | – | – |
| CCOC(=O)COc1cc(C)c(C(=O)c2c(CC)oc3ccccc23)cc1C [Compound 38, Ethyl 2,5-dimethyl-4-(2-ethyl-3-benzofuroyl)phenoxyacetate] | 324 ± 19 | – | – |
| CCc1oc2ccccc2c1C(=O)c1cc(C)c(OCC(=O)O)cc1C [Compound 39] | 410 ± 28.6 | – | Phenol Red Retention % in Rats 100 mg/kg (p.o.) (phenol red retention): 175.7 ± 21.6% |
| CCc1oc2ccccc2c1C(=O)c1cc(C)c(O)c(C)c1 [Compound 40, 2-ethyl-3-(3,5-dimethyl-4-hydroxybenzoyl)benzofuran] | 183 ± 22.2 | – | – |
| CCOC(=O)COc1c(C)cc(C(=O)c2c(CC)oc3ccccc23)cc1C [Compound 41, Ethyl 2,6-dimethyl-4-(2-ethyl-3-benzofuroyl)phenoxyacetate] | 183 ± 27.8 | – | – |
| CCc1oc2ccccc2c1C(=O)c1cc(C)c(OCC(=O)O)c(C)c1 [Compound 42, 2,6-dimethyl-4-(2-ethyl-3-benzofuroyl)phenoxyacetic acid] | 394 ± 44.4 | – | – |
| CCc1oc2ccccc2c1C(=O)c1ccc(OCc2nnn[nH]2)cc1 [Compound 43, 5-[4-(2-ethyl-3-benzofuroyl)phenoxymethyl]tetrazole] | 430 ± 80 | – | – |
| CCc1oc2ccccc2c1C(=O)c1ccc(OCc2nnn[nH]2)c(Cl)c1 [Compound 44, 5-[2-chloro-4-(2-ethyl-3-benzofuroyl)phenoxymethyl]tetrazole] | 175 ± 17.9 | – | – |
| CCc1oc2ccccc2c1C(=O)c1ccc(OCc2nnn[nH]2)c(C)c1 [Compound 45, 5-[2-methyl-4-(2-ethyl-3-benzofuroyl)phenoxymethyl]tetrazole] | 218 ± 21.4 | – | – |
| CCc1oc2ccccc2c1C(=O)c1ccc(OCc2nnn[nH]2)c(C)c1C [Compound 46, 5-[2,3-dimethyl-4-(2-ethyl-3-benzofuroyl)phenoxymethyl]tetrazole] | 240 ± 64 | – | – |
| CCc1oc2ccccc2c1C(=O)c1cc(C)c(OCc2nnn[nH]2)cc1C [Compound 47, 5-[2,5-dimethyl-4-(2-ethyl-3-benzofuroyl)phenoxymethyl]tetrazole] | 232 ± 28 | – | – |
| CCc1oc2ccccc2c1C(=O)c1cc(C)c(OCc2nnn[nH]2)c(C)c1 [Compound 48, 5-[2,6-dimethyl-4-(2-ethyl-3-benzofuroyl)phenoxymethyl]tetrazole] | 296 ± 56 | – | – |
